Here are results for 2 molecules from US8912230B2, “Method for treating cell degeneration using at least one molecule capable of inhibiting adhesion molecule expression and vascular endothelium actin fibre polymerization” (Aisa Therapeutics, priority 2004, dated 2014).

The subject of series [1] is rats. The settings on record: rat, in vivo; cited from earlier work.
Series [2] relates to C57/BL6 mice. The series is described as follows: Preliminary in vivo toxicity study, blood cell count (Cell Dyn 3500/3700). Further details: species or system mouse. As for the experimental part: FIGS. 11-25 depict the in vivo toxicity study for the natural and synthetic forms (respectively “NAT” and “SYN”) of geranyl acetate—a molecule called “AISA 5201” and selected for its representativeness of the AISA class—in a mouse model, for blood cell count parameters, at concentrations of 5, 10, 25, and 50 μg/mouse which correspond to non-toxic in vitro concentrations, allowing the desired biological effect to be observed, i.e. the inhibition of endothelial adhesion and endothelial actin polymerisation.
Two methods were used, one with the synthetic form named herein “SYN” (SIGMA catalogue number 173495), and the other with the natural unfiltered form (derived from geranium essential oils treated by HPLC) named herein “NAT”, of said molecule.
On the basis of the in vitro toxicity experiments, the “SYN” and “NAT” molecules were first tested on C57/BL6 mice at concentrations of 10, 25, and 50 μg/mouse, as well as on a control batch which was injected with PBS, either via the IP (intraperitoneal) or retro-orbital (IV) routes. Each batch consisted of 4 animals. A total of 16 animals was used.
Following the experiment, a blood cell count was performed using the Cell Dyn Systems 3500/3700 machine from Abbott Laboratories. This test was carried out to reveal any possible functional alterations. […]

As for `CC(=O)OC/C=C(\C)CCC=C(C)C` [AISA 5201, (E)-3,7-dimethyl-2,6-octadienyl acetate], the LD50 in series [1] is 6,330 mg/kg. `CC(=O)OC/C=C(\C)CCC=C(C)C` [NAT, geranyl acetate]: the “most appropriate concentration (WBC, NEU, LYM, MONO and PLT values closest to control)” value in series [2] (first experiment, 10, 25, 50 μg/mouse tested) worked out at 50 μg/mouse. Also, the blood cell count result in series [2] (mouse, in vivo) is recorded as “remaining within the values of the standard range”.
